# From patent US20220195059A1, “Rank Pathway Inhibitors in Combination with CDK Inhibitors” (INSTITUTO DE MEDICINA MOLECULAR JOÃO LOBO ANTUNES, priority 2019, published 2022)
# Key:
# [1] = tested on: TNBC cells (MDA-MB-231, MDA-MB-436, MDA-MB-468, MDA-MB-157, HCC1937, BT-20); assay: Alamar blue viability assay, TNBC cell lines with or without OPG-Fc; format: cell-based, human; settings: 7 days
# Description: Cells were seeded in 96 well-plates (2-5×10^4 cells/mL), with or without paclitaxel (Y0000698, Sigma), doxorubicin hydrochloride (D2975000, Sigma), palbociclib (PD 0332991 isethionate, PZ0199, Sigma), ribociclib (LEE011 succinate, SC-488174, Santa Cruz), abemaciclib mesylate (LY2835219, S7158, Selleckchem), fulvestrant (S1191, Selleckchem), everolimus (#73122, StemCell Technologies), full length human OPG (SRP3132, Sigma), and OPG-Fc (Amgen). Medium was replaced every 2 days. After 7 days, 1:10 Alamar blue (Invitrogen) was added to each well and fluorescence was measured 2 hours after incubation (excitation 560 nm; emission 590 nm) in an Infinite M200 microplate reader (Tecan).
# Medium was replaced every two days, and viability was assessed by Alamar blue assay.
# Cells were seeded in 96 well-plates (2-5×10^4 cells/mL), with or without palbociclib (PD 0332991 isethionate, PZ0199, Sigma), ribociclib (LEE011 succinate, SC-488174, Santa Cruz), abemaciclib mesylate (LY2835219, S7158, Selleckchem), 3-ATA (sc-202414, Santa Cruz), Cdk4 inhibitor Ill (sc-202988, Santa Cruz), seliciclib (S1153, Selleckchem), and OPG-Fc (PL-33324, Amgen). Medium was replaced every 2 days. After 7 days, 1:10 Alamar blue (Invitrogen) was added to each well and fluorescence was measured 2 hours after incubation (excitation 560 nm; emission 590 nm) in an Infinite M200 microplate reader (Tecan).
# [2] = tested on: MDA-MB-231 GFP+Luc+ xenografts; assay: Pilot study, orthotopic TNBC xenografts; format: in vivo, NSG mice; settings: measured throughout the experiment; between groups
# Description: A pilot study to test the sensitivity of TNBC xenografts to CDK4/6 inhibitors (palbociclib) in combination with RANK pathway blockage (OPG-Fc) was performed. […] As shown in this figure, body weight was not different between groups. The proliferation index of tumors as measured by the quantification of Ki67-positive cells and p-pRB positive cells is shown in FIG. 13D. FIG. 13C is a series of images of Ki67-stained or p-pRb stained cells.
# [3] = tested on: MDA-MB-231 xenografts; assay: TNBC ectopic xenograft model; format: in vivo, NSG mice; settings: Palbociclib 30 mg/Kg/day p.o., 21 days; xenografts not regressed
# Description: Based on these findings TNBC BC sensitivity to CDK4/6 inhibitors (palbociclib) in combination with RANK pathway blockage was tested in a TNBC ectopicxenograft model (FIG. 27). Nod scid gama (NSG) mice were inoculated subcutaneously and bilaterally in the flanks (n=5/group). Tumors were measured with caliper. When tumors reach approximately 100 mm^3 mice were randomized based on tumor size and treated according to the experimental protocol. Palbociclib was used at 30 mg/Kg/day for 21 consecutive days, as the human equivalent dose (HED) of 125 mg/day approved for palbociclib is equivalent to […] in mice (Nair and Jacob, J Basic Clin Pharm. 2016 March; 7(2):27-31). OPG-Fc was used at 10 mg/Kg 3×/week (HED 291.6 mg/15 days).
# Nod scid gama (NSG) mice were inoculated subcutaneously and bilaterally in the flanks with MDA-MB-231 cells (n=4-5/group). Six weeks post inoculation mice were randomized based on tumor size and treated with OPG-Fc 10 mg/Kg i.p. 3× per week; Palbociclib 30 mg/Kg/day p.o. or the combination. […] The data are presented as mean±SEM. p-value was calculated using ANOVA, *p<0.05, **p<0.01, ***p<0.001.
# Tumor growth was monitored every two days with caliper and tumor volume calculated using the formula Tvol=½(length×width^2). […]
# TRAcP 5b was quantified in mouse serum using the MouseTRAP (TRAcP 5b) ELISA kit (IDS), according to the manufacturer instructions.
smiles,measurement,setting,value
CC(=O)c1c(C)c2cnc(Nc3ccc(N4CCNCC4)cn3)nc2n(C2CCCC2)c1=O [palbociclib],sensitivity of TNBC cells to CDK4/6 inhibitor (cell viability),[1],resistance
same,body weight,[2],not different
same,tumor growth (tumor volume),[3],slowing of tumor growth
